From US20150307520A1, “NOVEL HETEROARYL AND HETEROCYCLE COMPOUNDS, COMPOSITIONS AND METHODS THEREOF” (HUTCHISON MEDIPHARMA LIMITED, priority 2012, published 2015)

Tests used:
Type in all cases: biochemical
p110β/p85α = p110β/p85α (Homo sapiens, UniProt P42338); assay: Transcreener KINASE Assay, kinase inhibition of p110β/p85α; conditions: for PI3Kβ IH % @ 1 uM: 1 uM test compound; for IC50: read-out: PI3Kβ IC50
Summary of the method: (§1)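 ADP production was read by fluorescence polarization immunoassay (60 min detection step) after an 80 min room-temperature reaction of p110/p85α enzyme, compound in 2% DMSO, and PIP2/ATP solution (30 uM/10 uM as added) in HEPES buffer with MgCl2 and DTT. IC50s came from inhibition versus the DMSO control.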

p110δ/p85α = p110δ/p85α (Homo sapiens, UniProt O00329); assay: Transcreener KINASE Assay, kinase inhibition of p110δ/p85α; conditions: for PI3Kδ IH % @ 1 uM: 1 uM test compound; for IC50: read-out: PI3Kδ IC50
Sequence of p110δ/p85α (O00329 whole entry): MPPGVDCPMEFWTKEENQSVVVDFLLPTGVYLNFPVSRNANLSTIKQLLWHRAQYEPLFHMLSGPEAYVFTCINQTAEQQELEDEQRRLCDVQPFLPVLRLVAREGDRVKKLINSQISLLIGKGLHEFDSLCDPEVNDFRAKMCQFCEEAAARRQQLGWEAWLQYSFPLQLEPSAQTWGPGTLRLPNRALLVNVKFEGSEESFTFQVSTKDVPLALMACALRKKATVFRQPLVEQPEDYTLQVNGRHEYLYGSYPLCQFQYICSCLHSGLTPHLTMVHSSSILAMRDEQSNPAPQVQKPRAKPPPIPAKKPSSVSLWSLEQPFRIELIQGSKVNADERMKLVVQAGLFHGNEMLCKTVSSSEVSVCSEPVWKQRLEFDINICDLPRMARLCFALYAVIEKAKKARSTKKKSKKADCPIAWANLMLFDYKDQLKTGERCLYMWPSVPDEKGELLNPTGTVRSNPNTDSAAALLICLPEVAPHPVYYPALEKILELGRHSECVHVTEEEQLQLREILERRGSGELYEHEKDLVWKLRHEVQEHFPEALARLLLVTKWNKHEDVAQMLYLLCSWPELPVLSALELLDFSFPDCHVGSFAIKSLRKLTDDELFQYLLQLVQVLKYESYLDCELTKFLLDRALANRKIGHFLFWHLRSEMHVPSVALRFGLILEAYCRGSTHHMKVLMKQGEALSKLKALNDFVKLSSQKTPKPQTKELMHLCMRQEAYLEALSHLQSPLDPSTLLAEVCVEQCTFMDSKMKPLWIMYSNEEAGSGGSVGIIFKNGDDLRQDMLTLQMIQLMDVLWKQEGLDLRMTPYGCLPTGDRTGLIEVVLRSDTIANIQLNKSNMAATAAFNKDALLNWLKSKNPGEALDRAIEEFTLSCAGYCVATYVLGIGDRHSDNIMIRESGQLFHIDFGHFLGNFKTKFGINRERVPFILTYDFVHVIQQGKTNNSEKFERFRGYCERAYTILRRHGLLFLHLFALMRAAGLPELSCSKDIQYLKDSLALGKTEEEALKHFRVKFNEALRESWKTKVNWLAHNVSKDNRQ
Sequence of p110δ/p85α (P27986 whole entry partner): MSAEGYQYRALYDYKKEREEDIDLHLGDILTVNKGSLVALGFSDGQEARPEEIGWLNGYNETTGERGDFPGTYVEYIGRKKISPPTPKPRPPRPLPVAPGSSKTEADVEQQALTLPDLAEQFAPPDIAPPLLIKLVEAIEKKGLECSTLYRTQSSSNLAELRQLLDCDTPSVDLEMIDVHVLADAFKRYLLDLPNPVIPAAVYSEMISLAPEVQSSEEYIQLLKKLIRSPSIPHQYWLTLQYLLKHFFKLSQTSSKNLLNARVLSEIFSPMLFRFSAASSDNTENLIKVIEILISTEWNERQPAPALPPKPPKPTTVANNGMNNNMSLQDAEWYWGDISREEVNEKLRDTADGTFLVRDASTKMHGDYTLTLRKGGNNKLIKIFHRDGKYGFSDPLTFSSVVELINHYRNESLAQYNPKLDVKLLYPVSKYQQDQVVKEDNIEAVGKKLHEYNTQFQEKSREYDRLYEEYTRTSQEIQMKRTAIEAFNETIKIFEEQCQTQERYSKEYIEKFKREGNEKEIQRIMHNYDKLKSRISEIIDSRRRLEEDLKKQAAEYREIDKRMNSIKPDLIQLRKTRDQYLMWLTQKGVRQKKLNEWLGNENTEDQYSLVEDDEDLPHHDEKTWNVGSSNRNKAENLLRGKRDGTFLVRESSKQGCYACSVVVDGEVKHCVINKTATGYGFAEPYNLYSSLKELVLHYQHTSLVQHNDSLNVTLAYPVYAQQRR
Summary of the method: as §1

p110γ = p110γ (Homo sapiens, UniProt P48736); assay: Transcreener KINASE Assay, kinase inhibition of p110γ; conditions: for PI3Kγ IH % @ 1 uM: 1 uM test compound; for IC50: read-out: PI3Kγ IC50
Sequence of p110γ (P48736 whole entry): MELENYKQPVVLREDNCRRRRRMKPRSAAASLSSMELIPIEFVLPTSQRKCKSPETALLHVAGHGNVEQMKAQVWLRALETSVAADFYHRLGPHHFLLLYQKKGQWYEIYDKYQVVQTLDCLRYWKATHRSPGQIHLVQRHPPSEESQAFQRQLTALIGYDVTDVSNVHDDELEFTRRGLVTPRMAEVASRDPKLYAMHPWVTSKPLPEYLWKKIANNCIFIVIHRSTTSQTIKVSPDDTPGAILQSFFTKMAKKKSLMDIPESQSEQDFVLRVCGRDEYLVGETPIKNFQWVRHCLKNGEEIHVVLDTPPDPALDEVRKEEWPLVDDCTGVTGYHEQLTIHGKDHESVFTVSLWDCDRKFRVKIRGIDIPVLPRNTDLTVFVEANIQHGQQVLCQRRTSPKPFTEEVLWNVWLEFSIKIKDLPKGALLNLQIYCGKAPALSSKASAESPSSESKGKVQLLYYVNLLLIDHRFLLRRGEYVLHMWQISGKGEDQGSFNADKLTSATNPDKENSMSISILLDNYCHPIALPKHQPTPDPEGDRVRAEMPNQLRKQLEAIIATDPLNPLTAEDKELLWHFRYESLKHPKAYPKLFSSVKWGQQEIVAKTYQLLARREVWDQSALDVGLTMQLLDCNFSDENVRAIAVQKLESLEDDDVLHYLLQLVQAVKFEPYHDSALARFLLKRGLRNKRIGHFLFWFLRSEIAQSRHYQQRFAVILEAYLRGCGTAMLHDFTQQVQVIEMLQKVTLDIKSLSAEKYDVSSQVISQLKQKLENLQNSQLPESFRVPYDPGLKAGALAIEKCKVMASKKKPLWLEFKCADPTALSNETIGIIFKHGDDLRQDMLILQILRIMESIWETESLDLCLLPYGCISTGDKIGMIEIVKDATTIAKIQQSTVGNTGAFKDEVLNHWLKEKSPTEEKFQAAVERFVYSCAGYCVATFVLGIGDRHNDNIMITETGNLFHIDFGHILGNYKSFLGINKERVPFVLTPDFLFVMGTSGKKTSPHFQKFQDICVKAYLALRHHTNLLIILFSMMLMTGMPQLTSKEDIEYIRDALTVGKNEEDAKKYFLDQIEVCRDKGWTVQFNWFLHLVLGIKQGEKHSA
Summary of the method: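 Steps: enzyme reaction with compound, 80 min at room temperature; add ADP detection reagent, incubate 60 min at room temperature; read fluorescence polarization. Inhibition and IC50 values are derived from the ADP signal.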

Sequence of p110β/p85α (P42338 whole entry): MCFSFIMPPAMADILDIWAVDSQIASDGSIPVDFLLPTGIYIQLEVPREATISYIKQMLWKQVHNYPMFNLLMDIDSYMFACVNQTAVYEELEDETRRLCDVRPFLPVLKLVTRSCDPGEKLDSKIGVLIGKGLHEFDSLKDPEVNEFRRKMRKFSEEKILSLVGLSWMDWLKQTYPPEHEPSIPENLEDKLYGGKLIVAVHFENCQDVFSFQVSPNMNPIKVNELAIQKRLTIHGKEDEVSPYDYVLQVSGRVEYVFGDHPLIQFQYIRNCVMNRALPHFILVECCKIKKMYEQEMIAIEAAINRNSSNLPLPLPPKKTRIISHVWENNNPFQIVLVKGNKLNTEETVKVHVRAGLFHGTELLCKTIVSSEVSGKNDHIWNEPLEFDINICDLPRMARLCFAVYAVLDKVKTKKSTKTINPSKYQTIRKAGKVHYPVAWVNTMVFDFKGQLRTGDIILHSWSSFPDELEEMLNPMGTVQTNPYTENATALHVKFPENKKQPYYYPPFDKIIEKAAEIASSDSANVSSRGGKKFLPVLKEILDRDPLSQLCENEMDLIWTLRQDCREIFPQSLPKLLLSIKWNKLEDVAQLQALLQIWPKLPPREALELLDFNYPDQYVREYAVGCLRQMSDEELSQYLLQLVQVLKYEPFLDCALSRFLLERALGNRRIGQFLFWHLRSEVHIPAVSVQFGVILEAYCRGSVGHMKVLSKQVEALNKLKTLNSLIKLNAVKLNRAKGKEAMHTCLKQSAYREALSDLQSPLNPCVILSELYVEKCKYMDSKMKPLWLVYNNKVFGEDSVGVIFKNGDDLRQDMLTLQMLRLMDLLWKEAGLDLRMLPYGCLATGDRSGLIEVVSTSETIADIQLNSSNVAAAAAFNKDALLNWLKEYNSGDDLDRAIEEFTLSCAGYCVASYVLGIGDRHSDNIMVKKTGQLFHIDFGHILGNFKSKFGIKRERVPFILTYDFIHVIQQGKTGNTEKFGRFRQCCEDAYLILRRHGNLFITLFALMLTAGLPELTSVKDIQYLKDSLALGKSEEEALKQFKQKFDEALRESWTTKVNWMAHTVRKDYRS
Sequence of p110β/p85α (P27986 2-724 partner): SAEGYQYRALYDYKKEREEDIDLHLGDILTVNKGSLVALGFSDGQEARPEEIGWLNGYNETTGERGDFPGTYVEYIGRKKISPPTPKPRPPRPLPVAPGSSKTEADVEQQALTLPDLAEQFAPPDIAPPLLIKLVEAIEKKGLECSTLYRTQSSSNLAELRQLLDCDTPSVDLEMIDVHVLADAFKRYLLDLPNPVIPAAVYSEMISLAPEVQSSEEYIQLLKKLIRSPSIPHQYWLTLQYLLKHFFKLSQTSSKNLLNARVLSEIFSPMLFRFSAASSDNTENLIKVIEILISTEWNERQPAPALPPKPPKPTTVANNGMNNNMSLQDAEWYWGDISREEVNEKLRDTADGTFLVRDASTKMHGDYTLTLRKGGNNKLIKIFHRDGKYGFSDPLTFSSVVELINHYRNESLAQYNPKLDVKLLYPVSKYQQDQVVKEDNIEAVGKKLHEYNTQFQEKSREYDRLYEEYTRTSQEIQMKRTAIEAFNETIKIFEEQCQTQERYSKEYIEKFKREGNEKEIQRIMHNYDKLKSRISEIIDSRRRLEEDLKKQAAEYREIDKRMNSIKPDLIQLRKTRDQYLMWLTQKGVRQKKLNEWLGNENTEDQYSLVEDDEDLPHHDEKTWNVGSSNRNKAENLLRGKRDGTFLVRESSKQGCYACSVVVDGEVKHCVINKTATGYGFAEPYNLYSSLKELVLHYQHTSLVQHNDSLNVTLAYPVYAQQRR

SMILES | PI3Kβ IH % @ 1 uM (p110β/p85α) | IC50 (p110β/p85α) | PI3Kδ IH % @ 1 uM (p110δ/p85α) | IC50 (p110δ/p85α) | PI3Kγ IH % @ 1 uM (p110γ) | IC50 (p110γ)
N#C[C@@H]1C[C@@H](c2nn3ccc(Cl)c3c(=O)n2-c2ccccc2)N(c2ncnc3[nH]cnc23)C1 [Compound 358, (3R,5S)-5-(5-chloro-4-oxo-3-phenyl-3,4-dihydropyrrolo[2,1-f][1,2,4]triazin-2-yl)-1-(9H-purin-6-yl)pyrrolidine-3-carbonitrile] | 62.0% | 269 nM | >100% | 17 nM | >100% | 66 nM
N#C[C@H]1C[C@@H](c2nn3ccc(Cl)c3c(=O)n2-c2ccccc2)N(c2ncnc3[nH]cnc23)C1 [Compound 359] | 94.8% | 44 nM | >100% | 1 nM | >100% | 3 nM
N#Cc1c[nH]c2ncnc(N3C[C@@H](C#N)C[C@H]3c3nn4ccc(Cl)c4c(=O)n3-c3ccccc3)c12 [Compound 360] | 95.3% | 12 nM | 99.2% | 1 nM | >100% | 5 nM
N#C[C@H]1C[C@@H](c2nn3ccc(Cl)c3c(=O)n2-c2ccc(F)cc2)N(c2ncnc3[nH]cnc23)C1 [Compound 361] | 79.2% | 103 nM | 97.9% | 25 nM | >100% | 27 nM
CCC(=O)c1cnc(N)nc1N1CC[C@H]1c1nn2ccc(Cl)c2c(=O)n1-c1ccccc1 [Compound 362] | 4.1% |  | 56.0% |  | 97.4% | 40 nM
O=c1c2c(Cl)ccn2cc(C2CCCN2c2ncnc3[nH]cnc23)n1-c1ccccc1 (stereo not drawn) [Compound 363, 3-(1-(9H-purin-6-yl)pyrrolidin-2-yl)-8-chloro-2-phenylpyrrolo[1,2-a]pyrazin-1(2H)-one] | 68.3% |  | 97.5% | 6 nM | 98.3% | 27 nM
N#Cc1c[nH]c2ncnc(N3CCCC3c3cn4ccc(Cl)c4c(=O)n3-c3ccccc3)c12 (stereo not drawn) [Compound 364] | 88.2% | 56 nM | 99.1% | 2 nM | >100% | 17 nM
CS(=O)(=O)[C@H]1C[C@@H](c2nn3ccc(Cl)c3c(=O)n2-c2ccccc2)N(c2ncnc3[nH]cc(C#N)c23)C1 [Compound 365, 4-((2S,4S)-2-(5-chloro-4-oxo-3-phenyl-3,4-dihydropyrrolo[2,1-f][1,2,4]triazin-2-yl)-4-(methylsulfonyl)pyrrolidin-1-yl)-7H-pyrrolo[2,3-d]pyrimidine-5-carbonitrile] | 79.0% | 275 nM | 98.0% | 3 nM | 88.6% | 25 nM
CS(=O)(=O)[C@H]1C[C@@H](c2nn3ccc(Cl)c3c(=O)n2-c2ccccc2)N(c2ncnc3[nH]cnc23)C1 [Compound 366] | 74.4% | 300 nM | 97.1% | 11 nM | 86.8% | 89 nM
CC(=O)c1cnc(N)nc1N1CCC[C@H]1c1nn2ccc(Cl)c2c(=O)n1-c1ccccc1 [Compound 369, (S)-2-(1-(5-acetyl-2-aminopyrimidin-4-yl)pyrrolidin-2-yl)-5-chloro-3-phenylpyrrolo[2,1-f][1,2,4]triazin-4(3H)-one] | 68.8% | 242 nM | >100% | 2 nM | 90.4% | 3 nM
N#Cc1c[nH]c2ncnc(N3CC[C@H]3c3nn4ccc(Cl)c4c(=O)n3CC3CC3)c12 [Compound 371, (S)-4-(2-(5-chloro-3-(cyclopropylmethyl)-4-oxo-3,4-dihydropyrrolo[2,1-f][1,2,4]triazin-2-yl)azetidin-1-yl)-7H-pyrrolo[2,3-d]pyrimidine-5-carbonitrile] | 17.5% |  | 89.8% | 70 nM | 74.4% | 317 nM
CS(=O)(=O)CCn1c([C@@H]2CCCN2c2ncnc3[nH]cnc23)nn2ccc(Cl)c2c1=O [Compound 372] | 42.6% |  | 84.8% | 100 nM | 87.7% | 297 nM
O=c1c2c(Cl)ccn2nc([C@@H]2CCCN2c2ncnc3[nH]cnc23)n1C1CCC1 [Compound 374] | 58.7% | 517 nM |  | 4 nM |  | 155 nM
N#Cc1c[nH]c2ncnc(N3CC[C@H]3c3nn4ccc(Cl)c4c(=O)n3C3CCC3)c12 [Compound 375] | 32.9% |  | 92.6% | 43 nM | 65.7% | 
N#Cc1cnc(N)nc1N1CCC[C@H]1c1nn2ccc(Cl)c2c(=O)n1C1CCC1 [Compound 376] | 54.8% |  | 99.1% | 6 nM | 93.2% | 26 nM
Cc1nc(N)nc(N2CC[C@H]2c2nn3ccc(Cl)c3c(=O)n2-c2ccccc2)c1Cl [Compound 377, (S)-2-(1-(2-amino-5-chloro-6-methylpyrimidin-4-yl)azetidin-2-yl)-5-chloro-3-phenylpyrrolo[2,1-f][1,2,4]triazin-4(3H)-one] | 39.8% |  | 98.0% | 34 nM | 96.3% | 45 nM
COc1nc(N)nc(N2CC[C@H]2c2nn3ccc(Cl)c3c(=O)n2-c2ccccc2)c1C#N [Compound 378, (S)-2-amino-4-(2-(5-chloro-4-oxo-3-phenyl-3,4-dihydropyrrolo[2,1-f][1,2,4]triazin-2-yl)azetidin-1-yl)-6-methoxypyrimidine-5-carbonitrile] | 34.5% |  | 87.2% | 220 nM | >100% | 179 nM
Nc1nc2c(c(N3CC[C@H]3c3nn4ccc(Cl)c4c(=O)n3-c3ccccn3)n1)C(=O)CCN2 [Compound 379] | 14.5% |  |  | 59 nM |  | 35 nM
N#Cc1c[nH]c2ncnc(N3CC(=O)C[C@H]3c3nn4ccc(Cl)c4c(=O)n3-c3ccccc3)c12 [Compound 380, (S)-4-(2-(5-chloro-4-oxo-3-phenyl-3,4-dihydropyrrolo[2,1-f][1,2,4]triazin-2-yl)-4-oxopyrrolidin-1-yl)-7H-pyrrolo[2,3-d]pyrimidine-5-carbonitrile] | 87.8% | 65 nM | 98.0% | 1 nM | >100% | 10 nM
O=C1C[C@@H](c2nn3ccc(Cl)c3c(=O)n2-c2ccccc2)N(c2ncnc3[nH]cnc23)C1 [Compound 381] |  | 199 nM |  | 3 nM |  | 29 nM
C[C@@H](Nc1nc(N)ncc1C#N)c1cc2ncc(Cl)n2c(=O)n1-c1ccccc1 [Compound 384, (R)-2-amino-4-((1-(3-chloro-5-oxo-6-phenyl-5,6-dihydroimidazo[1,2-c]pyrimidin-7-yl)ethyl)amino)pyrimidine-5-carbonitrile] | 24.7% |  | 91.0% | 240 nM | 53.6% | 
C[S@+]([O-])c1c[nH]c2ncnc(N3CCC[C@H]3c3nn4ccc(Cl)c4c(=O)n3-c3ccccn3)c12 [Compound 388, 5-chloro-2-((S)-1-(5-((S)-methylsulfinyl)-7H-pyrrolo[2,3-d]pyrimidin-4-yl)pyrrolidin-2-yl)-3-(pyridin-2-yl)pyrrolo[2,1-f][1,2,4]triazin-4(3H)-one] | 69.3% |  | 96.2% | 2 nM | 80.7% | 173 nM
C[S@@+]([O-])c1c[nH]c2ncnc(N3CC[C@H]3c3nn4ccc(Cl)c4c(=O)n3-c3ccccn3)c12 [Compound 391, 5-chloro-2-((S)-1-(5-((R)-methylsulfinyl)-7H-pyrrolo[2,3-d]pyrimidin-4-yl)azetidin-2-yl)-3-(pyridin-2-yl)pyrrolo[2,1-f][1,2,4]triazin-4(3H)-one] | 0.1% |  | 91.4% | 185 nM | 90.5% | 129 nM
C[S@+]([O-])c1c[nH]c2ncnc(N3C[C@@H](F)C[C@H]3c3nn4ccc(Cl)c4c(=O)n3-c3cccc(F)c3)c12 [Compound 392, 5-chloro-2-((2S,4S)-4-fluoro-1-(5-((S)-methylsulfinyl)-7H-pyrrolo[2,3-d]pyrimidin-4-yl)pyrrolidin-2-yl)-3-(3-fluorophenyl)pyrrolo[2,1-f][1,2,4]triazin-4(3H)-one] | 67.2% |  | 95.9% | 11 nM | 89.1% | 62 nM
C[S@@+]([O-])c1c[nH]c2ncnc(N3C[C@@H](F)C[C@H]3c3nn4ccc(Cl)c4c(=O)n3-c3cccc(F)c3)c12 [Compound 393, 5-chloro-2-((2S,4S)-4-fluoro-1-(5-((R)-methylsulfinyl)-7H-pyrrolo[2,3-d]pyrimidin-4-yl)pyrrolidin-2-yl)-3-(3-fluorophenyl)pyrrolo[2,1-f][1,2,4]triazin-4(3H)-one] | 35.2% |  | 94.7% | 9 nM | 90.7% | 9 nM
